# BindingDB's records for doi:10.1016/j.bioorg.2013.09.002 (Ewha Womans University, 2013)
# Where a SMILES comes first, the peptide text is derived from it. The star is where a group is joined. Cbz = O=C(OCc1ccccc1)*; CH2F = FC*
# Experiments:
# [1] = molecular target: T1, Calpain-1 catalytic subunit (Homo sapiens, UniProt P07384); test: µ-Calpain Inhibition Assay; details: pH 7.5; 25 °C
# T1 sequence (P07384 whole entry): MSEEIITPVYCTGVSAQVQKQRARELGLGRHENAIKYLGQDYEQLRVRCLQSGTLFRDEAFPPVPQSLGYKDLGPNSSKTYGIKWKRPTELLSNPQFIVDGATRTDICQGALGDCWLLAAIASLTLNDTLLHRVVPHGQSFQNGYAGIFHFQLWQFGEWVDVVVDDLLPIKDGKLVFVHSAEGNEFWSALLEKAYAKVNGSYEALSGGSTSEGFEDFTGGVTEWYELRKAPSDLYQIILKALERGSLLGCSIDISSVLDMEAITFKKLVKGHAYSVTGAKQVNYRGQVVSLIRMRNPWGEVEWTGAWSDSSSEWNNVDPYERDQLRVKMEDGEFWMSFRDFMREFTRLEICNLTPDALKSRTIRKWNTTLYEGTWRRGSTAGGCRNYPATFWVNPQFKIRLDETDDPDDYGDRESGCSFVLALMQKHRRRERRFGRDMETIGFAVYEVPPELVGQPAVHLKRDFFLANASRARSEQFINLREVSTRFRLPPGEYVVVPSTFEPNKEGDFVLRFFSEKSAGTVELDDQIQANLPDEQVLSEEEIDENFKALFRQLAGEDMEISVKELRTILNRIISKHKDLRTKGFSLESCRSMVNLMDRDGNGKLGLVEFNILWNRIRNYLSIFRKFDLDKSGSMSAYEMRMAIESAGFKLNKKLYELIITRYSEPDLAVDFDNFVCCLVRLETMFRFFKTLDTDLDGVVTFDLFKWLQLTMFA
# Protocol: The reaction was initiated by sequential addition of substrate A, µ-calpain, each compound, and finally a CaCl2 solution. The reaction mixture (100 µL) was incubated at room temperature for 30 min with shaking. Fluorescence intensities were measured at 320 nm excitation and 420 nm emission wavelengths.
# Procathepsin L = Procathepsin L (Homo sapiens, UniProt P07711); test: Cathepsin L Inhibition Assay; details: pH 5.5; 37 °C
# Procathepsin L, sequence (P07711 whole entry): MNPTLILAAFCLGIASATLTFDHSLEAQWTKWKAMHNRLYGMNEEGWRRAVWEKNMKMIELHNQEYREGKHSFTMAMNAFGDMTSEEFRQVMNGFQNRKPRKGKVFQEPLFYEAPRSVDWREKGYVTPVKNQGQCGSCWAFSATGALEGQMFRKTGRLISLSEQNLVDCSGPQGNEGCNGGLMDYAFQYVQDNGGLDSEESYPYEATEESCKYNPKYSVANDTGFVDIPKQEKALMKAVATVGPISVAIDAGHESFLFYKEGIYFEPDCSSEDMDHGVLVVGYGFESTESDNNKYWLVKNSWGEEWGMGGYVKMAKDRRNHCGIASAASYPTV
# Protocol: Inhibition of cathepsin L was assayed in reaction buffer (0.1M NaOAc-HCl, 1 mM EDTA, 0.1% β-mercaptoethanol, pH 5.5) containing 20 µM substrate and 4 nM cathepsin L. Z-FR-AMC was used as a substrate for […]. Cathepsin L was activated by incubation in assay buffer at 37 °C for 30 min prior to initiation of the reaction by addition of the substrate and test compound. The reaction mixture was then incubated at room temperature for 30 min with shaking. Fluorescence intensities were measured at 360 nm excitation and 450 nm emission wavelengths.
# [2] = molecular target: T2, Calpain-2 catalytic subunit (Homo sapiens, UniProt P17655); test: m-Calpain Inhibition Assay; details: pH 7.5; 25 °C
# T2 sequence (P17655 whole entry): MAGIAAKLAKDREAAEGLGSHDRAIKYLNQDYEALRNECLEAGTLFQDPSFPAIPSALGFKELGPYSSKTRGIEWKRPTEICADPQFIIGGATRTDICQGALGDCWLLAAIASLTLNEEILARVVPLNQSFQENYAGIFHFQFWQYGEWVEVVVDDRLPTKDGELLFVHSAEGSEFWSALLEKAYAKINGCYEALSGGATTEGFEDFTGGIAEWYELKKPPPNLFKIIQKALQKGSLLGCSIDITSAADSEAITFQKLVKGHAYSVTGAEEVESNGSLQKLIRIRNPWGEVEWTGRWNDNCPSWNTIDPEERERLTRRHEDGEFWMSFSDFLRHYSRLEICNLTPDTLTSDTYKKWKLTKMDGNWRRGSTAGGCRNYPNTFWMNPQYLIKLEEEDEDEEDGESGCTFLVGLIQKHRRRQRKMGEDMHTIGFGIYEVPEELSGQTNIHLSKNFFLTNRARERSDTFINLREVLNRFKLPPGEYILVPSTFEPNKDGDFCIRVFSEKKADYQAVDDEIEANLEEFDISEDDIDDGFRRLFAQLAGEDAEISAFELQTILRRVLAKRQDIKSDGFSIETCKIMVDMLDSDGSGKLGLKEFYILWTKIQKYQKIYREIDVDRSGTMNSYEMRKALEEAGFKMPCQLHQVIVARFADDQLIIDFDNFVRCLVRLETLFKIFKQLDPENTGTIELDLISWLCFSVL
# Protocol: Inhibition of m-calpain was assayed in the reaction buffer (50 mM Tris-HCl, 100 mM NaCl, 5 mM β-mercaptoethanol, and 1 mM EDTA, pH 7.5) with 50 µM substrate B, 5 mM CaCl2 and 2.88 U/mL m-calpain. The reaction was initiated by sequential addition of substrate B, m-calpain, each compound, and finally a CaCl2 solution. The reaction mixture (100 µL) was incubated at room temperature for 30 min with shaking. Fluorescence intensities were measured at 320 nm excitation and 420 nm emission wavelengths. MDL28170 was used as a positive control for µ- and m-calpain inhibition.
IC50 [1] [µM],IC50 (Procathepsin L) [µM],IC50 [2] [µM],Structure (SMILES)
86.7,90.5,25.4,"O=C(/C=C/c1ccco1)c1ccc(O)cc1O [1-(2,4-Dihydroxyphenyl)-3-(furan-2-yl)propenone (10)]"
> 100,> 100,> 100,"O=C(/C=C/c1ccccn1)c1ccc(O)cc1O [1-(2,4-Dihydroxyphenyl)-3-(pyridin-2-yl)propenone (8)]"
> 100,> 100,> 100,"O=C(/C=C/c1cccnc1)c1ccc(O)cc1O [1-(2,4-Dihydroxyphenyl)-3-(pyridin-3-yl)propenone (7)]"
> 100,44.4,> 100,"O=C(/C=C/c1ccncc1)c1ccc(O)cc1O [1-(2,4-Dihydroxyphenyl)-3-(pyridin-4-yl)propenone (6)]"
56.2,53,39.9,"O=C(/C=C/c1cccs1)c1ccc(O)cc1O [1-(2,4-Dihydroxyphenyl)-3-(thiophen-2-yl)propenone (9)]"
> 100,> 100,> 100,"O=C(/C=C/c1ccco1)c1cc(O)cc(O)c1 [1-(3,5-Dihydroxyphenyl)-3-(furan-2-yl)propenone (21)]"
> 100,> 100,> 100,"O=C(/C=C/c1ccoc1)c1cc(O)cc(O)c1 [1-(3,5-Dihydroxyphenyl)-3-(furan-3-yl)propenone (24)]"
> 100,> 100,> 100,"O=C(/C=C/c1cccs1)c1cc(O)cc(O)c1 [1-(3,5-Dihydroxyphenyl)-3-(thiophen-2-yl)propenone (20)]"
> 100,> 100,97.3,"O=C(/C=C/c1ccsc1)c1cc(O)cc(O)c1 [1-(3,5-Dihydroxyphenyl)-3-(thiophen-3-yl)propenone (23)]"
> 100,> 100,> 100,"O=C(/C=C/c1ccccc1)c1cc(O)cc(O)c1 [1-(3,5-Dihydroxyphenyl)-3-phenylpropenone (22)]"
> 100,2.87,> 100,"O=C(/C=C/c1ccc(O)cc1O)c1ccco1 [3-(2,4-Dihydroxyphenyl)-1-(furan-2-yl)propenone (14)]"
> 100,2.8,60.2,"O=C(/C=C/c1ccc(O)cc1O)c1cccs1 [3-(2,4-Dihydroxyphenyl)-1-(thiophen-2-yl)propenone (13)]"
> 100,–,> 100,CCCNC(=O)[C@H]1O[C@@H]1C(=O)N[C@H](C(=O)N1CCC[C@H]1C(=O)O)[C@@H](C)CC [CA074]
0.397,–,0.418,O=C(NC(Cc1ccccc1)C(=O)NC(Cc1ccccc1)C(=O)CF)OCc1ccccc1 (stereo not drawn) [benzyl N-[1-[(4-fluoro-3-oxo-1-phenylbutan-2-yl)amino]-1-oxo-3-phenylpropan-2-yl]carbamate] (Cbz-Phe-Phe-CH2F; configuration not given here)
–,–,0.15,CC(C)C(NC(=O)OCc1ccccc1)C(=O)NC(C=O)Cc1ccccc1 [benzyl N-[(1S)-2-methyl-1-[(1-oxo-3-phenylpropan-2-yl)carbamoyl]propyl]carbamate] (Cbz-Val-Phe-aldehyde; configuration not given here)
